Laboratory results taken from patent US6602889B1, “5-heteroaryl substituted indoles” (H. Lundbeck A.S., priority 1998, dated 2003).
Counter-ions that a name gives are not always drawn. Like-named read-outs stand apart in the source and are kept apart here.

What was measured:
α1-adrenoceptors = experiment: Inhibition of 3H-prazosin binding to α1-adrenoceptors in rat brain in vitro; conditions: 3H-prazosin 0.25 nM, membranes from rat brain
Procedure: Method and results in Hyttel & Larsen, J. Neurochem.
The tissue is homogenized (Ultra Turrax, 10 se) in 10 mL of ice cold 50 mM tris buffer pH 7.7 (at 25° C.). The homogenate is centrifuged twice at 20,000 g for 10 min at 4° C. with rehomogenization of the pellet in 10 ml icecold buffer. The final pellet is homogenized in 250 vol (w/v) icecold buffer.
The binding experiment is initiated by addition of […] of tissue suspension (final tissue content corresponds to 3 mg original tissue) and by placing the 96 deep well titer plate in a 25 ° C. water bath. All tests are made in triplicates. After incubation for 20 min, the samples are filtered on a Brandel harvester under vacuum (18 inch. Hg) through printed filtermat B (13 mm). Titerplates and filter are washed 1×10 sec flow 50 L/h with ice cold buffer.
The filter mat is dried for 1 h at 110° C. and then placed in a sample bag with Meltilex B/HS (14.5 g) and melted together on the T-Tray heat sealer.
(§1) For determination of the inhibition of binding, five concentrations of drugs covering 3 decades are used.

dopamine D2 receptors = target: T1, dopamine D2 receptors (Rattus norvegicus, UniProt P61169); experiment: Inhibition of 3H-spiperone binding to dopamine D2 receptors in rat corpus striatum in vitro
T1 construct: Male Wistar (Mol:Wistar) rats (125-250 g) are sacrificed and striatal tissue is dissected and weighed; from tissue; host or cells: rat corpus striatum membranes (male Wistar rats)
T1 sequence (P61169 whole entry): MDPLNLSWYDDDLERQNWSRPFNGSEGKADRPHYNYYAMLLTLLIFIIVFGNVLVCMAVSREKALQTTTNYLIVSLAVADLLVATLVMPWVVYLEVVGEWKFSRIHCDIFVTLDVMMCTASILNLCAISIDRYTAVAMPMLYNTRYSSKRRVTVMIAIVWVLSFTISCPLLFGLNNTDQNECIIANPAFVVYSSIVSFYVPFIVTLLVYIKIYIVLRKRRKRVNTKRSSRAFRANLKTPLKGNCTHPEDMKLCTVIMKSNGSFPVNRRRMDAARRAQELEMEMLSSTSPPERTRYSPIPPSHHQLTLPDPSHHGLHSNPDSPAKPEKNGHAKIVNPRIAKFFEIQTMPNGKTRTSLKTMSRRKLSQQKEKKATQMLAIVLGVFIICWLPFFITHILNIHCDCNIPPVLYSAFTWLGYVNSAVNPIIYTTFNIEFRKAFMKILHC
Procedure: Inhibition of ^3H-Spiperone Binding to Dopamine D2 Receptors in Rat Corpus Striatum in vitro
By this method, the inhibition by drugs of the binding of ^3H -spiperone (=^3H-spiro-peridol) (0.5 nM) to dopamine D-2 receptors in membranes from rat corpus striatum is determined in vitro. […] Pharmacol. Toxicol. […] This is a test for dopamine D2 receptor binding affinity in vitro.
The tissue is homogenized (Ultra Turrax, 10 sec.) in 10 mL of ice-cold 50 mM K-phosphate buffer pH 7.4 (at 25° C.). The homogenate is centrifuged twice at 20,000 g for 10 min at 4° C. with rehomogenization of the pellet in 10 mL ice-cold buffer. The final pellet is homogenized in 1300 vol (w/v) ice-cold buffer.
The binding experiment is initiated by addition of 100 μl of ^3H-spiperone (final concentration 0.5 nM) and by placing the tubes in a 37° C. water bath. […] The tubes are rinsed with 5 mL ice-cold buffer which are then poured on the filters. Thereafter, the filters are washed with 2×5 mL of buffer. The filters are placed in counting vials and 4 mL of appropriate scintillation fluid (e.g. Picofluor ™15) are added. After shaking for 1 h and storage for 2 hrs in the dark, the content of radioactivity is determined by liquid scintillation counting. Specific binding is obtained by subtracting the nonspecific binding in the presence of 10 μM of 6,7-ADTN.
For determination of the inhibition of binding, five concentrations of drugs covering 3 orders of magnitude are used.
England, specific activity 15-25 Ci/mmol.

[1] = target: T2, serotonin S2 (5-HT2A) receptors (Rattus norvegicus, UniProt P14842); experiment: Inhibition of 3H-ketanserin binding to serotonin S2 (5-HT2A) receptors in rat cortex in vitro
T2 construct: Male Wistar (Mol:Wist) rats (125-250 g) are sacrificed and cortical tissue is dissected and weighed; from tissue; host or cells: rat cortex membranes (male Wistar rats)
T2 sequence (P14842 whole entry): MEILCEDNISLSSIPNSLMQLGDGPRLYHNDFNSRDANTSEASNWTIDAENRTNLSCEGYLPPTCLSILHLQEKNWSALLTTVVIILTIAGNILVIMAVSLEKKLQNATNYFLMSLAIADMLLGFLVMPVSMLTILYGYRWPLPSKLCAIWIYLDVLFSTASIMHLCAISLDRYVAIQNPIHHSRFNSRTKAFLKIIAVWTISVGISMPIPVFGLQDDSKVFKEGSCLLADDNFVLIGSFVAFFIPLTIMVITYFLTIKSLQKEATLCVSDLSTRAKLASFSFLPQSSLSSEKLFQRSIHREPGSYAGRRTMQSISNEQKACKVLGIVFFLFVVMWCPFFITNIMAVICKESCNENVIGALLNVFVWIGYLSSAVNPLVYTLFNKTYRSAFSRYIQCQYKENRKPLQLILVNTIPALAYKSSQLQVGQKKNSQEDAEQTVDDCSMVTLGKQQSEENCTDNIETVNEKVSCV
Procedure: Inhibition of ^3H-Ketanserin Binding to Serotonin S2 (5-HT2Å) Receptors in Rat Cortex in vitro
By this method the inhibition by drugs of the binding of ^3H-ketanserin (0.5 nM) to serotonin S2 (5-HT2) receptors in membranes from rat cortex is determined in vitro.
The tissue is homogenized (Ultra Turrax, 10 sec) in 10 mL of ice cold 50 mM tris buffer pH 7.7 (at 25° C.). The centrifuge glassware used in this step has been rinsed by sonication for 10 min in ethanol. The homogenate is centrifuged twice at 20,000 g for 10 min. at 4° C., with rehomogenization of the pellet in 10 mL icecold buffer. The final pellet is homogenized in 250 vol (w/v) icecold buffer.
Incubation tubes (96 deep well titer plate) kept on ice receive […] of ^3H ketanserin (final concentration 0.5 nM).
The binding experiment is initiated by addition of […] of tissue suspension (final tissue content corresponds to 4 mg original tissue) and by placing the 96 deep well titer plate in a 37° C. water bath. All tests are made in triplicates.
After incubation for 30 min, the samples are filtered on a Brandel harvester under vacuum (18 inch. Hg) through printed filter mat B (13 mm). Titerplate and filter are washed 2×10 sec. flow 50 L/h with ice cold buffer.
The printed filter mat with purred labelled tissue are dried for 1 h at 110° C. and hereafter placed in a sample bag with Meltilex B/HS 14.5 g and melted together on the T-tray heat seal.
Specific binding is obtained by subtracting the nonspecific binding in the presence of 1 mM mianserin.
as §1
^3H-ketanserin=(ethylene-^3H)-ketanserin hydrochloride from New England Nuclear, specific activity 60-80 Ci/mmol.

[2] = 3H-spiperone 0.5 nM, membranes from rat corpus striatum, read-out: IC50 values in nM, D2
[3] = 3H-ketanserin 0.5 nM, membranes from rat cortex, read-out: IC50 values in nM, 5-HT2A

Cn1nnnc1Cc1ccc2c(c1)c(C1CCN(CCN3CCNC3=O)CC1)cn2-c1ccc(F)cc1 (as salt: fumarate) [Compound 23c, 1-[2-[4-[(-(4-fluorophenyl)-5-[(1-methyltetrazol-5-yl)methyl]-1H-indol-3-yl]-1-piperidinyl]ethyl]-2-imidazolidinone 2.5 fumarate]
melting point: 169 to 171 °C

Cn1nnc(-c2ccc3c(c2)c(C2=CCN(CCN4CCNC4=O)CC2)cn3-c2ccncc2)n1 [Compound 5a, 1-[2-[4-[5-(2-Methyltetrazol-5-yl)-1-(4-pyridyl)-1H-indol-3-yl]-1,2,3,6-tetrahydro-1-pyridinyl]ethyl]-2-imidazolidinone]
IC50 (α1-adrenoceptors): 12 nM | IC50 (dopamine D2 receptors; [2]): > 100 nM | IC50 [1, 3]: > 100 nM | melting point: 177 to 178 °C

Cn1nnc(-c2ccc3c(c2)c(C2CCN(CCN4CCNC4=O)CC2)cn3-c2ccncc2)n1 [Compound 6a, 1-[2-[4-[5-(2-Methyltetrazol-5-yl)-1-(4-pyridyl)-1H-indol-3-yl]-1-piperidinyl]ethyl]-2-imidazolidinone]
IC50 (α1-adrenoceptors): 18 nM | IC50 (dopamine D2 receptors; [2]): > 100 nM | IC50 [1, 3]: > 100 nM | melting point: 204 to 206 °C

Cn1nnc(CCN2CC=C(c3cn(-c4ccc(F)cc4)c4ccc(-c5nnn(C)n5)cc34)CC2)n1 [Compound 17a, 1-(4-Fluorophenyl)-5-(2-methyltetrazol-5-yl)-3-[1-[2-(2-methyltetrazo-5-yl)ethyl]-1,2,3,6-tetrahydropyridin-4-yl]-1H-indole]
IC50 (α1-adrenoceptors): 4 nM | IC50 (dopamine D2 receptors; [2]): 20 nM | IC50 [1, 3]: 70 nM

Cn1nnc(-c2ccc3c(c2)c(C2=CCN(CCc4nnnn4C)CC2)cn3-c2ccc(F)cc2)n1 [Compound 17b, 1-(4-Fluorophenyl)-5-(2-methyltetrazol-5-yl)-3-[1-[2-(1-methyltetrazol-5-yl)ethyl]-1,2,3,6-tetrahydropyridin-4-yl]-1H-indole, fumarate]
IC50 (α1-adrenoceptors): 4.9 nM | IC50 (dopamine D2 receptors; [2]): 97 nM | IC50 [1, 3]: 450 nM

CN1CC=C(c2cn(-c3ccc(F)cc3)c3ccc(-c4nnn(C)n4)cc23)CC1 [Compound 21b]
IC50 (α1-adrenoceptors): 9.4 nM | IC50 (dopamine D2 receptors): 14 nM | IC50 [1]: > 100 nM | melting point: 142 to 144 °C

Cn1nnc(-c2ccc3c(c2)c(C2=CCN(CCN4CCNC4=O)CC2)cn3-c2ccc(F)cc2)n1 [Compound 22a, 1-[2-[4-[1-(4-Fluorophenyl)-5-(2-methyltetrazol-5-yl)-1H-indol-3-yl]-1,2,3,6-tetrahydropyridin-1-yl]ethyl]-2-imidazolidinone]
IC50 (α1-adrenoceptors): 1.5 nM | IC50 (dopamine D2 receptors; [2]): 37 nM | IC50 [1, 3]: 210 nM

Cn1nnnc1-c1ccc2c(c1)c(C1=CCN(CCN3CCNC3=O)CC1)cn2-c1ccc(F)cc1 [Compound 22b, 1-[2-[4-[1-(4-fluorophenyl)-5-(1-methyltetrazol-5-yl)-1H-indol-3-yl]-1,2,3,6-tetrahydropyridin-1-yl]ethyl]-2-imidazolidinone]
IC50 (α1-adrenoceptors): 0.75 nM | IC50 (dopamine D2 receptors; [2]): 4.7 nM | IC50 [1, 3]: 38 nM | melting point: 198 to 200 °C

CCn1nnc(-c2ccc3c(c2)c(C2=CCN(CCN4CCNC4=O)CC2)cn3-c2ccc(F)cc2)n1 [Compound 22c]
IC50 (α1-adrenoceptors): 7.8 nM | IC50 (dopamine D2 receptors; [2]): 110 nM | IC50 [1, 3]: > 100 nM | melting point: 179 to 181 °C

Cn1nnnc1Cc1ccc2c(c1)c(C1=CCN(CCN3CCNC3=O)CC1)cn2-c1ccc(F)cc1 [Compound 22d, 1-[2-[4-[1-(4-fluorophenyl)-5-[(1-methyltetrazol-5-yl)methyl]-1H-indol-3-yl]-1,2,3,6-tetrahydropyridin-1-yl]ethyl]-2-imidazolidinone]
IC50 (α1-adrenoceptors): 0.72 nM | IC50 (dopamine D2 receptors; [2]): 5 nM | IC50 [1, 3]: 18 nM | melting point: 174 to 176 °C

Cn1nnc(Cc2ccc3c(c2)c(C2=CCN(CCN4CCNC4=O)CC2)cn3-c2ccc(F)cc2)n1 [Compound 22e, 1-[2-[4-[1-(4-fluorophenyl)-5-[(2-methyltetrazol-5-yl)methyl]-1H-indol-3-yl]-1,2,3,6-tetrahydropyridin-1-yl]ethyl]-2-imidazolidinone]
IC50 (α1-adrenoceptors): 1.5 nM | IC50 (dopamine D2 receptors; [2]): 8.6 nM | IC50 [1, 3]: 5 nM | melting point: 129 to 131 °C

Cn1ncc(-c2ccc3c(c2)c(C2=CCN(CCN4CCNC4=O)CC2)cn3-c2ccc(F)cc2)n1 [Compound 22g, 1-[2-[4-[1-(4-fluorophenyl)-5-(2-methyltriazol-4-yl)-1H-indol-3-yl]-1,2,3,6-tetrahydropyridin-1-yl]ethyl]-2-imidazolidinone]
IC50 (dopamine D2 receptors; [2]): 28 nM | IC50 [1, 3]: 94 nM | melting point: 175 to 177 °C

CCn1ncc(-c2ccc3c(c2)c(C2=CCN(CCN4CCNC4=O)CC2)cn3-c2ccc(F)cc2)n1 [Compound 22i, 1-[2-[4-[5-(2-ethyltriazol-4-yl)-1-(4-fluorophenyl)-1H-indol-3-yl]-1,2,3,6-tetrahydropyridin-1-yl]ethyl]-2-imidazolidinone]
IC50 (dopamine D2 receptors; [2]): 51 nM | IC50 [1, 3]: 22 nM | melting point: 143 to 145 °C

CCn1nnc(-c2ccc3c(c2)c(C2CCN(CCN4CCNC4=O)CC2)cn3-c2ccc(F)cc2)n1.Cl.Cl [Compound 23a, 1-[2-[4-[5-(2-ethyltetrazol-5-yl)-1-(4-fluorophenyl)-1H-indol-3-yl]-1-piperidinyl]ethyl]-2-imidazolidinone dihydrochloride]
IC50 (α1-adrenoceptors): 6.1 nM | IC50 (dopamine D2 receptors; [2]): > 100 nM | IC50 [1, 3]: 53 nM | melting point: 172 to 174 °C

CN1CCC(c2cn(-c3ccc(F)cc3)c3ccc(-c4nnn(C)n4)cc23)CC1 [Compound 23b, 1-(4-fluorophenyl)-3-(1-methyl-4-piperidinyl)-5-(2-methyltetrazol-5-yl)-1H-indole]
IC50 (α1-adrenoceptors): 7.1 nM | IC50 (dopamine D2 receptors; [2]): > 100 nM | IC50 [1, 3]: > 100 nM

Cn1nnnc1Cc1ccc2c(c1)c(C1CCN(CCN3CCNC3=O)CC1)cn2-c1ccc(F)cc1 [Compound 23c, 1-[2-[4-[(-(4-fluorophenyl)-5-[(1-methyltetrazol-5-yl)methyl]-1H-indol-3-yl]-1-piperidinyl]ethyl]-2-imidazolidinone 2.5 fumarate]
IC50 (α1-adrenoceptors): 0.5 nM | IC50 (dopamine D2 receptors; [2]): 3.7 nM | IC50 [1, 3]: 8.3 nM

COc1cc2nc(N3CCN(C(=O)c4ccco4)CC3)nc(N)c2cc1OC [Prazosin, prazosin, reference compound]
IC50 (α1-adrenoceptors): 0.36 nM | IC50 (dopamine D2 receptors; [2]): 11000 nM

O=C1NCCN1CCN1CCC(c2cn(-c3ccc(F)cc3)c3ccc(Cl)cc23)CC1 [Sertindole, sertindole, reference compound]
IC50 (α1-adrenoceptors): 3.4 nM
